Reference: patent US20230174945A1, “METHOD FOR INDUCING DIFFERENTIATION INTO PANCREATIC ALPHA CELLS” (KANEKA CORPORATION, priority 2020, published 2023)

Key:
human iPS cells [1] = experiment: Quantitative RT-PCR of cells differentiated from human iPS cells, with additives in the endodermal cell to primitive gut tube (PGT) cell step; format: cell-based; details: added to medium for 3 days when inducing endodermal cells into PGT cells (0.67 µM LDN193189, 1 µM EC23); compared to cells of Comparative Example 1; standardized by OAZ1; FIG. 1
Procedure: Differentiation was induced by the same method as in Comparative Example 1 up to the endodermal cells. For induction of differentiation from the endodermal cells into primitive gut tube (PGT) cells, the suspension culture was implemented for 3 days in a medium obtained by adding 0.67 µM LDN193189 to the medium used in Comparative Example 1, a medium obtained by adding 1 µM EC23 to the medium used in Comparative Example 1, or a medium obtained by adding both of them to the medium used in Comparative Example 1. In addition, 2.5 µM Y-27632 was added to the above-mentioned medium for the purpose of maintaining the shape of the clumps. A 30 mL single-use bioreactor was mounted on a six-channel magnetic stirrer, and while stirring at the speed of 45 rpm, the suspension culture was implemented in a 5% CO2 incubator at 37° C. Induction of differentiation after posterior foregut (PFG) cells was performed in the same method as in Comparative Example 1.
Total RNA was isolated and purified from the cells obtained by inducing differentiation in (1) using Isogen (Nippon Gene), and cDNA was synthesized from the obtained total RNA using PrimeScriptII (TaKaRa Bio Inc.). Using the obtained cDNA as a template, quantitative PCR was implemented by means of a MyiQ qPCR machine (Bio-Rad), using GoTaq qPCR master mix (Promega). For the detection, the intercalation method using SYBR Green was used, and for the gene expression level comparison, the relative quantification method by means of the ΔΔCt method or the ΔCt method was used. The expression level of each gene was standardized by OAZ1 which is a housekeeping gene.

human iPS cells [2] = experiment: Measurement of GCG (glucagon) secretion amount by Glucagon ELISA; format: cell-based; details: ascorbic acid removed from differentiation medium after PGT cells (Example 2) compared to medium with 0.25 mM ascorbic acid (Example 1); 2.0 mM glucose, 1 hour; FIG. 2
Procedure: Primitive gut tube (PGT) cells were produced from human iPS cells by the same method as in Example 1. The obtained primitive gut tube (PGT) cells were induced to differentiate into cells after posterior foregut (PFG) cells using a medium obtained by removing ascorbic acid from the medium of Comparative Example 1. The cells obtained by inducing differentiation in (1) were recovered in 2 × 10^6 cells and cultured for 30 minutes in a DMEM medium (containing 2 mM glucose) containing 10 mM HEPES and 0.1 (volume/volume)% BSA. Thereafter, the cells were washed twice with a DMEM medium (without glucose) containing 10 mM HEPES and 0.1 (volume/volume)% BSA. Thereafter, the cells were cultured for 1 hour in a DMEM medium containing 1 mL of 2.0 mM glucose, 10 mM HEPES, and 0.1 (volume/volume)% BSA. Thereafter, the GCG concentration contained in the culture supernatant was measured using a Glucagon ELISA 10 µl Kit (Mercodia). The GCG secretion amounts of the cells obtained in Example 1 and Comparative Example 1 were also measured as comparison targets by the above-mentioned method.

CC1(C)CCC(C)(C)c2cc(C#Cc3ccc(C(=O)O)cc3)ccc21 [EC23]
expression level of the GCG gene (human iPS cells [1]): up-regulation

c1ccc2c(-c3cnn4cc(-c5ccc(N6CCNCC6)cc5)cnc34)ccnc2c1 [LDN193189]
expression level of the INS gene (human iPS cells [1]): down-regulation
expression level of the NKX6.1 gene (human iPS cells [1]): down-regulation

O=C1O[C@H]([C@@H](O)CO)C(O)=C1O [ascorbic acid]
glucagon secretion amount (human iPS cells [2]): larger
